Active and inactive are the calls of the source. The calls are words filed in the database; no cut-off is given here.
Legend:
[1] = test system: PBMC; experiment: Immunomodulatory activity in human PBMC assessed as increase in LPS-induced IL-8 production at 10 uM after 24 hrs by flow cytometric analysis; format: functional, cell-based
[2] = test system: PBMC; experiment: Immunomodulatory activity in human PBMC assessed as increase in LPS-induced TNF-alpha production at 10 uM after 24 hrs by flow cytometric analysis; format: functional, cell-based
[3] = test system: PBMC; experiment: Immunomodulatory activity in human PBMC assessed as increase in LPS-induced IL-10 production at 10 uM after 24 hrs by flow cytometric analysis; format: functional, cell-based
[4] = test system: PBMC; experiment: Immunomodulatory activity in human PBMC assessed as increase in LPS-induced IL-1beta production at 10 uM after 24 hrs by flow cytometric analysis; format: functional, cell-based
[5] = test system: PBMC; experiment: Immunomodulatory activity in human PBMC assessed as increase in LPS-induced IL-6 production at 10 uM after 24 hrs by flow cytometric analysis; format: functional, cell-based
[6] = test system: PBMC; experiment: Immunomodulatory activity in human PBMC assessed as increase in IL-10 production at 10 uM after 24 hrs by flow cytometric analysis; format: functional, cell-based
[7] = test system: PBMC; experiment: Immunomodulatory activity in human PBMC assessed as increase in TNF-alpha production at 10 uM after 24 hrs by flow cytometric analysis; format: functional, cell-based
[8] = test system: PBMC; experiment: Immunomodulatory activity in human PBMC assessed as increase in IL-12p70 production at 10 uM after 24 hrs by flow cytometric analysis; format: functional, cell-based
[9] = test system: PBMC; experiment: Immunomodulatory activity in human PBMC assessed as increase in IL-1beta production at 10 uM after 24 hrs by flow cytometric analysis; format: functional, cell-based
[10] = test system: PBMC; experiment: Immunomodulatory activity in human PBMC assessed as increase in IL-8 production at 10 uM after 24 hrs by flow cytometric analysis; format: functional, cell-based
[11] = test system: PBMC; experiment: Immunomodulatory activity in human PBMC assessed as increase in IL-6 production at 10 uM after 24 hrs by flow cytometric analysis; format: functional, cell-based
[12] = test system: PBMC; experiment: Immunomodulatory activity in human PBMC assessed as increase in LPS-induced IL-12p70 production at 10 uM after 24 hrs by flow cytometric analysis; format: functional, cell-based
[13] = biological target: T1, Nucleotide-binding oligomerization domain-containing protein 1 (Homo sapiens) (UniProt Q9Y239); experiment: Agonist activity at human Nod1 expressed in human Ramos cells assessed as reduction of NF-kappaB transcriptional activity at 10 uM after 24 hrs by SEAP reporter gene assay in presence of nod1 antagonist noditinib-1; format: cell-based
T1 sequence (whole entry): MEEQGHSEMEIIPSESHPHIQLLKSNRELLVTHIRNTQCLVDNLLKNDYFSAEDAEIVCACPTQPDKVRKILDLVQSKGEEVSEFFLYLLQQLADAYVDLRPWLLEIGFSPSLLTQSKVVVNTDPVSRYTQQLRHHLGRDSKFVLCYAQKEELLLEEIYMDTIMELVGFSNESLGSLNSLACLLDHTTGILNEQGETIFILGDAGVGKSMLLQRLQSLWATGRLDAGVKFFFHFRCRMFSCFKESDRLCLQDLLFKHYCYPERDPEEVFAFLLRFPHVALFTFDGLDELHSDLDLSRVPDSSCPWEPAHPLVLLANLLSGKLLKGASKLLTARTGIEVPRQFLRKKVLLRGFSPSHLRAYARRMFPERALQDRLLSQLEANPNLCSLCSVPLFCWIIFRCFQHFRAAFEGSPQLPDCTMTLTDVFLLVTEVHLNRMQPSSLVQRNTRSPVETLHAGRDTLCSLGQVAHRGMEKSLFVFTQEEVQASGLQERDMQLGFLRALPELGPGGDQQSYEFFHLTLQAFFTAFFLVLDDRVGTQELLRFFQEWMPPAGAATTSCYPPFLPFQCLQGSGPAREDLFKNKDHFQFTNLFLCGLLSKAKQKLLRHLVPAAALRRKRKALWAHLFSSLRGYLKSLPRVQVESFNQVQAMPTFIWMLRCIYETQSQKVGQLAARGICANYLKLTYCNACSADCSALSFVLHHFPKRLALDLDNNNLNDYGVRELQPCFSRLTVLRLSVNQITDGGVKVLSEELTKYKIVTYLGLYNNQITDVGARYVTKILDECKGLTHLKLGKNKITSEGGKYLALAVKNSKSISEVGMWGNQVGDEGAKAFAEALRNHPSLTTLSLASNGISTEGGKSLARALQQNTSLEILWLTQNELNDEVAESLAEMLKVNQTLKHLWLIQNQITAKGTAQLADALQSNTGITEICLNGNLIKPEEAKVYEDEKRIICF

[14] = biological target: T1, Nucleotide-binding oligomerization domain-containing protein 1 (Homo sapiens); experiment: Agonist activity at human Nod1 expressed in human Ramos-Blue cells assessed as increase in NF-kappaB transcriptional activity at 10 uM after 24 hrs by SEAP reporter gene assay; format: cell-based

In the case of `CCCCCCCCCCCCN(CCCCCCCCCCCC)[C@H](CCC(=O)N[C@@H](/C=C/C[C@@H](N)C(=O)O)C(=O)O)C(=O)O`, the Activity [1] is reported as “inactive”, the Activity [2] is reported as “inactive” and the Activity [3] is reported as “Active”. The Activity [4] was “inactive”, the Activity [5] was “Active” and the Activity [6] was “Active”. For the same compound, the Activity [7] was “Active”, the Activity [8] was “inactive” and the Activity [9] was “Active”. The Activity [10] was “Active”, the Activity [11] was “Active” and the Activity [12] was “inactive”. The Activity [13] was “Active” and the Activity [14] was “Active”.

For `CCCCCCCCCCCCN(CCCCCCCCCCCC)[C@H](CCC(=O)N[C@@H](C/C=C/[C@@H](N)C(=O)O)C(=O)O)C(=O)O`, the Activity [1] was “inactive”, the Activity [2] was “inactive” and the Activity [3] was “inactive”. For the same compound, the Activity [4] was “inactive”, the Activity [5] was “Active” and the Activity [6] was “Active”. For the same compound, the Activity [7] was “Active”, the Activity [8] was “inactive” and the Activity [9] was “Active”. The Activity [10] was “Active”, the Activity [11] was “Active” and the Activity [12] was “inactive”. The Activity [13] was “Active” and the Activity [14] was “Active”.

`CCCCCCCCCCCC(=O)N[C@H](CCC(=O)N[C@@H](/C=C/C[C@@H](N)C(=O)O)C(=O)O)C(=O)O` was tested, and the Activity [1] was “inactive”, the Activity [2] was “inactive” and the Activity [3] was “Active”. The Activity [4] was “inactive”, the Activity [5] was “Active” and the Activity [6] was “Active”. For the same compound, the Activity [7] was “Active”, the Activity [8] was “inactive” and the Activity [9] was “Active”. For the same compound, the Activity [10] was “Active”, the Activity [11] was “Active” and the Activity [12] was “inactive”. For the same compound, the Activity [13] was “Active” and the Activity [14] was “Active”.

For `CCCCCCCCCCCC(=O)N[C@H](CCC(=O)N[C@@H](CCC[C@@H](N)C(=O)O)C(=O)O)C(=O)O`, the Activity [1] was “inactive”, the Activity [2] was “Active” and the Activity [3] was “Active”. For the same compound, the Activity [4] was “inactive”, the Activity [5] was “Active” and the Activity [6] was “Active”. The Activity [7] was “Active”, the Activity [8] was “inactive” and the Activity [9] was “Active”. The Activity [10] was “Active”, the Activity [11] was “Active” and the Activity [12] was “inactive”. The Activity [13] was “Active” and the Activity [14] was “Active”.

In the case of `CCCCCCCCCCCC(=O)N[C@H](CCC(=O)N[C@@H](C/C=C/[C@@H](N)C(=O)O)C(=O)O)C(=O)O`, the Activity [1] is reported as “inactive”, the Activity [2] is reported as “Active” and the Activity [3] is reported as “Active”. The Activity [4] was “inactive”, the Activity [5] was “Active” and the Activity [6] was “Active”. For the same compound, the Activity [7] was “Active”, the Activity [8] was “inactive” and the Activity [9] was “Active”. The Activity [10] was “Active”, the Activity [11] was “Active” and the Activity [12] was “inactive”. The Activity [13] was “Active” and the Activity [14] was “Active”.

— ChEMBL document CHEMBL2434941, “Synthesis of conformationally constrained γ-D-glutamyl-meso-diaminopimelic acid derivatives as ligands of nucleotide-binding oligomerization domain protein 1 (Nod1)” (Eur J Med Chem, 2013)
